Source: patent US5420276A, “Analogs of oxetanyl purines and pyrimidines” (Abbott Laboratories, priority 1993, dated 1995)
Read-outs that look alike come from different tables or passages of the source.

Key:
[1] = MTT drug cytotoxicity assay in MRC5 cells; format: cell-based; details: human, read-out: MTT assay Percent of control
Protocol: (§1) Human diploid embryonic lung (MRC5) cells were grown in 35 mm wells of 6-well tissue culture plates. Subconfluent cell monolayers were rinsed with phosphate-buffered saline (PBS) and were exposed to 0.5 ml/well of HCMV (strain AD169) suspension for 1.5 hours at 37° C. The virus suspension was diluted in MEM+2% fetal bovine serum (FBS) to yield a multipicity of infection (MOI) of approximately 0.1 plaque forming units (PFU)/cell. Following the virus adsorption period, the inocula were removed and infected cell layers were rinsed with PBS. Aliquiots (2.0 ml) of each test drug concentration (dissolved in MEM supplemented with 2% FBS) were dispensed into triplicate cell cultures: two virus-infected cultures and one uninfected cytotoxicity control culture (exposed to medium without virus for 1.5 hours). Untreated virus-infected control cultures and untreated, uninfected cell control cultures were fed with medium alone. The culture plates were incubated at 37° C. in a humidified atmosphere of 2% CO2 in air.
All cell culture fluids were replaced with fresh drug and medium 48 hours postinfection (p.i.).
Drug cytotoxicity was determined quantitatively by a method based on the reduction of the tetrazolium salt, 3-(4,5-dimethyl-thiazol-2-yl)-2,5-diphenyl tetrazolium bromide (MTT) by mitochondrial enzymes of viable host cells to MTT formazan (T. Mosmann, 1983). Drug cytotoxicity controls and cell controls were treated with MTT (dissolved in culture medium) followed by 20% SDS (in 0.02N HCl) to dissolve the crystals of MTT formazan. The blue color of the MTT formazan was measured spectrophotometrically at 570 nm. Drug cytotoxicity was determined by comparing the absorbance (O.D.) of each drug cytotoxicity control with the mean O.D. of the cell control cultures and expressed as percent of control.

[2] = test system: Human Cytomegalovirus (HCMV) strain AD169; test: HCMV virus yield reduction assay; format: cell-based; details: Human betaherpesvirus 5, AD169, 144 h, MRC5 cells; for log reduction at 3.2 µg/mL: 3.2 μg/ml; for log reduction at 10 µg/mL: 10 μg/ml
Protocol: as §1, with “air. All cell culture fluids were replaced with fresh drug and medium 48 hours postinfection (p.i.). On Day 6 p.i., the cell layers were examined microscopically for cytopathogenic effect (CPE) and drug cytotoxicity. The test and virus control cultures were then harvested by subjecting the cell layers to one cycle of freeze-thawing. The cellular material was scraped into the ambient medium and the contents from replicate cultures were pooled, dispensed into cryotubes and stored at -135° C. The harvested test and virus control samples were thawed and the infectious virus yield was determined by plaque assay in MRC5 cells grown in 12-well cluster plates. Inhibition of HCMV replication by each test compound was determined by comparing the progeny virus yields in the drug-treated cultures with the progeny virus yield in the untreated, virus-infected control cultures.” for “air.”

[3] = in vitro; format: cell-based, African green monkey; details: monkey, vero cells
Protocol: Vero cell monolayers were harvested by trypsinization. The number of viable cells per ml. was determined by staining an aliquot with trypan blue and counting in a hemocytometer. Cell densities were adjusted in growth medium to contain 4×10^5 cells/mi. 96-well sterile tissue culture plates were seeded with 100 μl/well of the adjusted cell suspensions, i.e., 4×10^4 cells/well. Seeded plates were incubated overnight at 37° C. with CO2.
After overnight incubation, monolayers were approximately confluent. The growth medium was removed and the monolayers in each cell were infected with 100 μl of virus diluted in maintenance medium to produce approximately 90% cytopathogenic effect (CPE) after 2 to 3 days incubation. The virus was allowed to adsorb for 1 hour at 37° C. with 4 to 6% CO2. Controls for cell growth were overlayed with virus-free maintenance medium. The maintenance medium containing residual virus was removed.
The test compounds were dissolved and/or diluted in maintenance medium to the concentration desired for testing and were added to the wells of the plate. Aliquots (100 μl ) of each concentration were added to wells in replicate (duplicate or triplicate). Controls for virus activity were overlayed with drug-free maintenance medium. Replicate wells containing only maintenance medium served as controls for background absorbance levels.
After incubation, the medium was removed from all the wells. 100 μl of neutral red solution was added to each well and the plate was incubated at 37° C. without CO2 for 2 hours. After the 2 hour incubation, the excess neutral red solution was removed. The plates were washed with 100 μl/well of PBS, pH 7.2 and then the PBS was removed.
The neutral red stain taken up by the viable cells was extracted by adding 100 μl/well of acidified methanol, pH 1.0. (The acidified methanol fixed the cells to the well). The plate was allowed to stand at room temperature for at least 15 minutes to allow for maximum extraction. The amount of neutral red stain extracted into the methanol was quantified by determining the absorbance at a wavelength of 540 nm. […]

Row | Structure (SMILES) | viability ([1]; 10 μg/ml) [%] | viability ([1]; 32 μg/ml) [%] | viability ([1]; 100 μg/ml) [%] | viability ([1]; 320 μg/ml) [%] | log reduction at 3.2 µg/mL [2] | log reduction at 10 µg/mL [2] | log reduction at 32 µg/mL ([2]; 32 μg/ml) | log reduction at 100 µg/mL ([2]; 100 μg/ml) | log reduction at 320 µg/mL ([2]; 320 μg/ml) | viability ([1]; 0.32 μg/ml) [%] | viability ([1]; 1.0 μg/ml) [%] | viability ([1]; 3.2 μg/ml) [%] | log reduction at 0.032 µg/mL ([2]; 0.032 μg/ml) | log reduction at 0.1 µg/mL ([2]; 0.1 μg/ml) | log reduction at 0.32 µg/mL ([2]; 0.32 μg/ml) | log reduction at 1 µg/mL ([2]; 1.0 μg/ml) | CC50 [3] [µg/mL]
1 | O=c1ccn([C@@H]2O[C@H](CO)[C@H]2CO)c(=O)[nH]1 [Example 23, 1-([2'R,3'R,4'S]-3',4'-Bis(hydroxymethyl)-2'-oxetanyl)uracil] | 100 | 100 | 98 | 100 | 0.2 | 0.4 | 0.5 | 0.9 | 1.9 |  |  |  |  |  |  |  | 
2 | Nc1ccn([C@@H]2O[C@H](CO)[C@H]2CO)c(=O)n1 [Example 22, 1-([2'R,3'R,4'S]-3',4'-Bis(hydroxymethyl)-2'-oxetanyl)cytosine] | 78 |  |  |  | > 4.4 | > 4.4 |  |  |  | 84 | 81 | 77 | 0.8 | 1.4 | 1.9 | 4.1 | 
3 | O=c1[nH]c(=O)n([C@@H]2O[C@H](CO)[C@H]2CO)cc1C=CBr [Example 44, 1-([2'R, 3'R, 4'S]-3',4'-Bis(hydroxymethyl)-2'-oxetanyl)-5-(2-bromo-1-vinyl)uracil] |  |  |  |  |  |  |  |  |  |  |  |  |  |  |  |  | > 1000
